# Test results from the supplement of paper PMC10307832.
# Assays:
# Assay in all cases: relative viability (nuclei count vs DMSO), 5 days (fraction); higher = more cells survive
# [1] = compound: CC(C)Oc1cc(Nc2nc(N[C@@H](C)c3ccc(F)cn3)ncc2Cl)n[nH]1 [AZ23]
# In short: (§1)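 Cells of lung cancer lines were placed in 1536-well plates and kept overnight at 37 °C. Pinning then delivered five library-drug doses (not always all listed), spaced by √10, onto plates anchored with vehicle, and the cells were left 5 days without changing medium. One step fixed, permeabilised and stained them with Hoechst, and MetaXpress counted nuclei in 4× images. Viability, as a median over plates, is treated-well nuclei divided by vehicle-well nuclei, with acceptance only at control CV below 25% and at least one doubling.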
# [2] = compound: CC(C)S(=O)(=O)C1=CC=CC=C1NC2=NC(=NC(=C2Cl)N)NC3=C(C=C(C=C3)N4CCC(CC4)C(=O)N)OC [HG-5-88-01]
# In short: as §1
# [3] = compound: CCCCCCCCCCCC1=C(O)C(=O)C=C(O)C1=O [Embelin]
# In short: as §1
# [4] = compound: C[C@@H]1CN(CC(=O)Nc2ccc3c(c2)Cc2cccc(-c4cc(=O)cc(N5CCOCC5)o4)c2S3)C[C@H](C)O1
# In short: as §1
# [5] = compound: Clc1ccc(Nc2nnc(Cc3ccncc3)c3ccccc23)cc1 [Vatalanib]
# In short: as §1
Cell Line,relative viability ([1]; 0.01 µM),relative viability ([1]; 0.03162 µM),relative viability ([1]; 0.3162 µM),relative viability ([2]; 0.04 µM),relative viability ([2]; 0.1265 µM),relative viability ([2]; 0.4 µM),relative viability ([2]; 1.265 µM),relative viability ([2]; 4 µM),relative viability ([3]; 0.08 µM),relative viability ([3]; 0.8 µM),relative viability ([3]; 2.53 µM),relative viability ([3]; 8 µM),relative viability ([4]; 0.04 µM),relative viability ([4]; 0.1265 µM),relative viability ([4]; 0.4 µM),relative viability ([4]; 4 µM),relative viability ([5]; 0.04 µM),relative viability ([5]; 0.1265 µM),relative viability ([5]; 0.4 µM),relative viability ([5]; 1.265 µM),relative viability ([5]; 4 µM)
201T,1.05,1.06,1.07,1.01,0.941,0.951,1.03,1.03,0.985,1.02,1.11,0.966,0.996,0.944,0.992,0.961,0.975,0.975,1.05,0.929,0.953
A549,1.23,1.12,0.922,0.997,0.954,0.909,0.726,0.75,0.992,1.06,1.12,0.97,0.958,0.922,0.918,0.806,1.01,0.944,0.998,0.928,0.929
A-427,0.921,1.07,1.15,0.94,1.02,1.02,1.11,0.534,1.06,1.03,1.04,0.943,0.956,0.945,1.06,0.938,1.03,0.97,0.983,0.863,0.989
ABC-1,0.82,1.18,1.02,0.825,1,0.732,0.75,0.778,0.866,1.11,0.893,1.03,–,1.11,0.983,1.12,0.977,0.647,0.803,0.89,0.851
BEN,1.05,1.12,0.994,0.866,1.07,0.884,0.873,1.05,1.04,1.14,1.1,1.02,0.929,0.881,1.12,0.955,0.954,0.904,0.951,0.882,0.946
CAL-12T,0.692,1.09,0.932,0.959,1.09,0.952,0.746,0.459,1.01,1.18,0.855,0.986,1.04,1.01,1.06,0.549,0.978,0.946,0.988,0.867,0.885
COR-L23,1.03,1.11,1.15,1.05,1.08,0.964,0.952,0.867,1,1.18,1.06,1.16,1.03,1.07,1.06,0.877,0.971,0.977,1.13,1.01,0.994
COR-L 105,0.843,1.1,1.04,0.825,0.969,0.883,0.726,0.685,1.04,1.1,0.89,0.981,0.921,1.01,1.05,0.805,0.901,0.895,1.03,0.892,0.835
Calu-6,–,1.09,1.01,1.04,0.965,0.946,0.948,0.854,1.01,1.09,1.07,1.07,1.04,0.951,1.03,0.74,1.06,0.958,1.06,0.949,0.976
ChaGo-K-1,1.2,1.09,1.04,1.02,1.03,0.936,1.03,0.841,1.06,1.01,1.05,0.983,0.826,0.961,0.967,0.979,0.87,0.983,1.01,0.962,1.06
EBC-1,1.04,1.12,0.931,1.02,0.851,0.98,0.933,0.901,1,1.11,1.02,0.979,1.02,0.952,0.712,0.535,1.06,0.895,1.06,0.955,0.896
EKVX,0.932,1.11,0.976,0.923,1.02,0.875,–,0.934,0.966,1.02,0.964,1.03,0.975,0.971,0.898,0.882,0.934,0.849,0.975,0.818,0.871
EMC-BAC-2,0.886,1.08,0.986,0.977,1.04,0.85,0.93,0.887,1.01,1.11,0.83,0.83,0.95,0.985,0.957,1.02,0.966,0.974,0.974,–,0.949
EPLC-272H,0.674,1.11,0.745,0.985,0.894,0.984,0.753,0.0869,0.969,1.18,0.962,0.806,0.982,1,1.09,0.932,0.958,0.906,1.13,0.889,0.89
H3255,0.858,1.21,0.999,1.04,1.05,0.838,–,0.871,0.963,1.05,0.875,1.07,0.917,0.947,0.905,0.878,0.921,0.926,0.841,0.781,0.978
HARA,0.821,1.1,1.07,1.04,0.979,0.923,0.598,0.805,0.963,1.12,1.05,0.929,0.931,0.908,0.873,0.911,0.88,0.99,1.12,0.878,1.03

Cell Line,relative viability ([1]; 0.01 µM),relative viability ([1]; 0.03162 µM),relative viability ([1]; 0.3162 µM),relative viability ([2]; 0.04 µM),relative viability ([2]; 0.1265 µM),relative viability ([2]; 0.4 µM),relative viability ([2]; 1.265 µM),relative viability ([2]; 4 µM),relative viability ([3]; 0.08 µM),relative viability ([3]; 0.8 µM),relative viability ([3]; 2.53 µM),relative viability ([3]; 8 µM),relative viability ([4]; 0.04 µM),relative viability ([4]; 0.1265 µM),relative viability ([4]; 0.4 µM),relative viability ([4]; 4 µM),relative viability ([5]; 0.04 µM),relative viability ([5]; 0.1265 µM),relative viability ([5]; 0.4 µM),relative viability ([5]; 1.265 µM),relative viability ([5]; 4 µM)
HCC-15,1.21,1.02,1.07,1.07,1.02,0.901,1,0.743,1.01,1.09,1.01,0.964,1.09,0.898,0.97,0.903,1.07,1.04,1.06,0.983,1.08
HCC-44,0.999,1.06,1.01,1.04,0.972,0.914,0.927,0.567,0.886,1.01,1.01,0.869,0.934,0.976,0.919,0.923,0.951,0.905,0.943,0.963,0.97
HCC-78,0.837,1.01,0.589,0.836,0.736,0.476,0.378,0.417,1.02,1.02,0.977,1.07,0.883,0.922,0.821,0.923,0.95,0.862,0.972,0.82,0.835
HCC-366,1.04,1.03,1.03,0.998,1.01,0.987,0.987,1.05,1.01,1.03,1.09,1.06,1.01,0.987,1.08,0.925,1.01,0.881,1.01,0.975,0.978
HCC-827,1.06,1.13,1.08,1.06,1.05,1.06,1.03,0.615,1.03,1.11,1.09,1.09,1.05,1.04,1.08,1.07,1.02,0.949,0.924,1.04,0.996
HOP-62,1.13,1.11,1.12,1.03,1.06,0.92,1.02,1.02,1.02,1.07,1.1,0.984,0.978,0.991,0.973,0.988,0.954,0.957,1.07,0.949,1.01
IA-LM,0.91,1.12,1.07,0.959,0.984,0.85,0.715,0.704,0.932,0.981,1,0.689,0.911,0.938,0.946,0.574,0.977,0.898,0.955,0.909,0.898
LC-2-ad,1.17,1.04,1.02,1.08,0.998,1.01,0.948,0.802,0.986,1.14,1.09,0.95,1.07,0.969,0.993,0.903,1.02,0.861,0.793,0.963,0.948
LCLC-97TM1,0.998,0.915,0.873,0.98,0.922,0.807,0.838,0.291,0.906,1.15,1.17,0.971,–,0.965,0.853,1.04,0.875,0.84,0.977,0.838,1.03
LCLC-103H,1.04,0.993,1.08,1.04,1.04,0.86,0.96,0.657,0.999,1.06,1.04,0.8,1.01,0.903,0.793,0.926,1.05,0.932,1.01,0.993,0.977
LK-2,0.802,1.14,0.959,0.976,0.994,0.962,0.582,0.789,1.1,1.07,1.25,0.856,0.848,0.923,0.979,1.1,0.952,0.863,0.889,1.01,0.995
LOU-NH91,0.921,1.08,1.01,0.912,0.904,0.866,0.612,0.629,1.02,1.27,0.991,0.864,0.943,0.989,0.966,0.876,0.925,0.936,0.816,0.876,0.921
LU99A,1.04,0.998,0.941,0.963,0.958,0.873,1.02,0.907,1.08,1.07,1.08,0.948,0.86,1.05,1.15,0.975,1.03,1.02,1.06,0.951,0.923
LXF-289,1.17,1.04,1.02,1.04,1.03,0.976,0.974,0.986,1.04,1.04,1.01,1.09,0.974,1.01,1.04,0.976,1.05,0.935,1.02,0.958,1
NCI-H23,–,1.07,0.887,1.03,0.993,0.959,0.824,0.392,0.987,1.07,1.03,0.705,1.08,0.923,0.943,0.96,0.948,0.833,1.04,0.961,0.853
NCI-H322M,0.695,0.974,1.07,0.811,0.872,0.876,0.494,0.718,0.987,0.996,1.03,0.915,0.823,0.947,0.961,0.827,0.938,0.946,0.936,0.904,0.917
